In PMC6892751, “Novel Angiotensin-Converting Enzyme-Inhibitory Peptides From Fermented Bovine Milk Started by Lactobacillus helveticus KLDS.31 and Lactobacillus casei KLDS.105: Purification, Identification, and Interaction Mechanisms” (Frontiers in Microbiology, 2019) one finds IC50 data, which are given here for seven substances.

In one assay the test system is ACE. The settings on record: read-out: IC50 of ACE inhibition, cited from earlier work. An excerpt:
ACE-inhibitory peptides from bovine milk protein have been described previously ([De Leo et al., 2009]). These bioactive peptides are typically produced by enzymatic hydrolysis, microbial fermentation, or genetic engineering. In particular, more attention has been focused on microbial fermentation as the food grade bacteria, such as lactic acid bacteria (LAB), provide enriched food bioactive substances ([Castellano et al., 2013]). Furthermore, the hydrolytic processing of milk protein through the action of chymosin and Lactobacillus casei can also improve cheese flavor ([Lemieux et al., 2010]) ...

The target in assay [1] is T1, angiotensin I-converting enzyme (ACE) (Oryctolagus cuniculus, UniProt P12822).
T1 sequence (P12822 34-1310): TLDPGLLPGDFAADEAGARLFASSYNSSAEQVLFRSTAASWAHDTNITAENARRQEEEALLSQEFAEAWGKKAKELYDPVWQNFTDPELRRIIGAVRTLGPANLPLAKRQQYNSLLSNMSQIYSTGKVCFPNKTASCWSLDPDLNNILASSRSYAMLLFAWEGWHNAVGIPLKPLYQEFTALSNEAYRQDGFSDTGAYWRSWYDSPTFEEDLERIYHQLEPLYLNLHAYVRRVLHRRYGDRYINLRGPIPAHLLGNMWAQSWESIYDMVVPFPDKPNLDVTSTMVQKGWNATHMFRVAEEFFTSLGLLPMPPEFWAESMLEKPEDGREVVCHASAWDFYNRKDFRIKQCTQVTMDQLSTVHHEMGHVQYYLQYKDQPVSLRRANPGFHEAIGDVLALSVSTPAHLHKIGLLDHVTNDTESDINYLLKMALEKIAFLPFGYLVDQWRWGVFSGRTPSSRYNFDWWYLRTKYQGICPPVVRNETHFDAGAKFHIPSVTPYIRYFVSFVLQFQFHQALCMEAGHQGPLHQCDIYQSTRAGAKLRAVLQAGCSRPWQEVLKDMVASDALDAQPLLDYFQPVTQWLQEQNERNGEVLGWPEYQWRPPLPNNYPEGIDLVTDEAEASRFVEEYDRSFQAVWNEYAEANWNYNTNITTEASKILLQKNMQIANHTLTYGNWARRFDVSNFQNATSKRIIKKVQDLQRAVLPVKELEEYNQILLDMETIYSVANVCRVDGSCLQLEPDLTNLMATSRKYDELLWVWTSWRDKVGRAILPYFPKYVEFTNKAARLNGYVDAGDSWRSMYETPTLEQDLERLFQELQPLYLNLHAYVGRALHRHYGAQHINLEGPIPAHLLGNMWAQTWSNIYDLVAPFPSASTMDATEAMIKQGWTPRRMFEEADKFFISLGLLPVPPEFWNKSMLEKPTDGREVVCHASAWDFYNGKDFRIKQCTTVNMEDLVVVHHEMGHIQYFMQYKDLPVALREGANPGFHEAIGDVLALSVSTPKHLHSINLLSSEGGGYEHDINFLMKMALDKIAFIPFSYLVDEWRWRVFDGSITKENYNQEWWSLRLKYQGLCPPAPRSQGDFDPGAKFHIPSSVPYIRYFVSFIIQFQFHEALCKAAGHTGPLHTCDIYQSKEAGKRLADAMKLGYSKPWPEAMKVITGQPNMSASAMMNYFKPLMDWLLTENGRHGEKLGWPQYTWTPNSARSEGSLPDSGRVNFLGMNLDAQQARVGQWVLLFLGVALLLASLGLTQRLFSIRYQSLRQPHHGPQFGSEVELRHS
Briefly: ACE-inhibitory activity determination by HPLC (hippuric acid from Hip-His-Leu). It is filed as biochemical. The settings on record: HPLC of hippuric acid, Hip-His-Leu 5 mM, sodium borate buffer 50 mM pH 8.1, ACE 0.1 U/mL, 37°C 60 min, mean ± SD, triplicate, read-out: IC50 of ACE inhibition. Here is the method: The determination was measured by HPLC, with slight changes according to the procedure described by [Gonzalez-Gonzalez et al. (2011)]. The sample (20 μL) was dissolved in 120 μL Hip-His-Leu (5 mM) with sodium borate buffer (50 mM, pH 8.1). After incubation at 37°C for 3 min, the ACE solution (0.1 U/mL, 10 μL) was added to the sample and incubated for 60 min at the above temperature. Subsequently, 0.15 mL HCl (1 M) was used to terminate the reaction. The content of hippuric acid (HA) produced by reaction was determined by reverse-phase high-performance liquid chromatography (RP-HPLC, Waters Corporation, United States). A symmetry C18 Column (3.9 × 150 mm, 5 μm, Waters, United States) was used with the Waters HPLC model Alliance 2690 system, which included an ultraviolet detector (Waters, United States). […] Flow rate was 0.8 mL/min. The sample (6 μL) was filtered (0.45 μm filter) and measured at 228 nm. A standard curve was generated using concentrations of standard HA and peak areas. The ACE-inhibitory activity was determined as:
ACEinhibitoryactivity(%)=[HA]control-[HA]sample/[HA]control×100%
The concentration of inhibitor that inhibits 50% ACE activity is defined as IC50 value.

Where [2] appears, read: peptides from low-fat milk fermented with several LAB, ref Chen et al. (2007).

Where two headings read alike, the source gives them in different places. Where no end group is shown, it is not given here.

The term IC50 denotes the concentration that inhibits the measured activity by half. For Gly-Val-Trp, the IC50 with ACE (setting [2]) is 240 µM.

On to KPAGDF [Lys-Pro-Ala-Gly-Asp-Phe], for which the IC50 in assay [1] turned out to be 77.5 ± 2.74 µM.

For KAALSGM [Lys-Ala-Ala-Leu-Ser-Gly-Met], the 50% inhibitory concentration (IC50) in assay [1] worked out at 110 ± 3.87 µM.

“LDHVPGGAR [Leu-Asp-His-Val-Pro-Gly-Gly-Ala-Arg]”: the IC50 in assay [1] was 201 ± 5.24 µM.

Gly-Thr-Trp: in the assay on ACE (setting [2]), the IC50 was 464 µM.

In the case of KKAAMAM [Lys-Lys-Ala-Ala-Met-Ala-Met], the IC50 in assay [1] is 189 ± 4.61 µM.

Turning to “RLSFDP [literature peptide from β-lactoglobulin hydrolysate (f148-153), sour milk fermented with Lb. helveticus LB10]”, the half-maximal inhibitory concentration (IC50) with ACE (from sour milk fermented with Lb. helveticus LB10, β-lactoglobulin hydrolysate (f148-153), ref Pan and Guo (2010)) is 177 µM.
